Laboratory results published in patent US9980943B2, “Methods of treating muscular dystrophy” (BOARD OF REGENTS OF THE NEVADA SYSTEM OF HIGHER EDUCATION, …, priority 2013, dated 2018).

Assays:
Type in all cases: cell-based, mouse
[1] = tested on: β-galactosidase in CMV-LacZ C2C12 myoblasts; test: CMV-LacZ secondary screen in C2C12 myoblasts (β-Gal stabilizing assay); details: for CMV-LACZ in Myoblasts, value relative to DMSO: SU9516 analogs, C2C12 CMV-LacZ, N=2; for CMV-LACZ in Myoblasts (β-galactosidase activity relative to DMSO): CMV-LacZ C2C12 myoblasts
Method in brief: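 A secondary screen identifies compounds that stabilize β-gal independently of the native promoter, using CMV-LacZ C2C12 cells. Curves span 0.5–40 μM at six levels, in duplicate.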

[2] = tested on: β-galactosidase in CMV-LacZ C2C12 myotubes; test: CMV-LacZ secondary screen in C2C12 myotubes (β-Gal stabilizing assay); details: for CMV-LACZ in Myotubes, value relative to DMSO: SU9516 analogs, C2C12 CMV-LacZ, N=2; for CMV-LACZ in Myotubes, signal relative to DMSO: C2C12 CMV-LacZ myotubes, fold relative to DMSO
Method in brief: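 β-gal stabilization was measured in C2C12 myoblasts or myotubes stably transfected with a CMV-driven LacZ construct, using the FDG β-gal assay. Compounds were tested in dose-response at 0.5, 1, 5, 10, 20 and 40 μM, with two replicates per point.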

[3] = tested on: α7 integrin (LacZ reporter in α7βgal+/− myoblasts); test: Myoblast α7+/LacZ integrin FDG assay (Burkin assay in myoblasts, 96-well); details: 96-well; for Burkin Assay in Myoblasts, value relative to DMSO: SU9516 analogs, N=3-6; for Burkin Assay in Myoblasts, signal relative to DMSO: α7+/LacZ myoblasts
[4] = tested on: α7 integrin (LacZ reporter in α7+/LacZ myotubes); test: Myotube α7 integrin FDG assay (Burkin assay in myotubes, 96-well); details: for Burkin Assay in Myotubes, value relative to DMSO: SU9516 analogs, 96-well, N=3-6

O=C1Nc2ccccc2/C1=C/c1ccc([N+](=O)[O-])cc1 [MLS001194544-01]
CMV-LACZ in Myoblasts, value relative to DMSO ([1]; 0.5 uM): 0.8975 | CMV-LACZ in Myoblasts, value relative to DMSO ([1]; 1 uM): 0.7213 | CMV-LACZ in Myoblasts, value relative to DMSO ([1]; 5 uM): 0.9068 | CMV-LACZ in Myoblasts, value relative to DMSO ([1]; 10 uM): 1.0363 | CMV-LACZ in Myoblasts, value relative to DMSO ([1]; 20 uM): 0.8983 | CMV-LACZ in Myoblasts, value relative to DMSO ([1]; 40 uM): 0.7383 | CMV-LACZ in Myotubes, value relative to DMSO ([2]; 0.5 uM): 1.0764 | CMV-LACZ in Myotubes, value relative to DMSO ([2]; 1 uM): 1.1318 | CMV-LACZ in Myotubes, value relative to DMSO ([2]; 5 uM): 0.9683 | CMV-LACZ in Myotubes, value relative to DMSO ([2]; 10 uM): 0.9739 | CMV-LACZ in Myotubes, value relative to DMSO ([2]; 20 uM): 0.9800 | CMV-LACZ in Myotubes, value relative to DMSO ([2]; 40 uM): 0.9400 | Burkin Assay in Myoblasts, value relative to DMSO ([3]; 0.5 uM): 1.044 | Burkin Assay in Myoblasts, value relative to DMSO ([3]; 1 uM): 0.9906 | Burkin Assay in Myoblasts, value relative to DMSO ([3]; 5 uM): 1.02 | Burkin Assay in Myoblasts, value relative to DMSO ([3]; 10 uM): 1.145 | Burkin Assay in Myoblasts, value relative to DMSO ([3]; 20 uM): 0.7914 | Burkin Assay in Myoblasts, value relative to DMSO ([3]; 40 uM): 0.5028 | Burkin Assay in Myotubes, value relative to DMSO ([4]; 0.5 uM): 0.9611 | Burkin Assay in Myotubes, value relative to DMSO ([4]; 1 uM): 0.9995 | Burkin Assay in Myotubes, value relative to DMSO ([4]; 5 uM): 1.002 | Burkin Assay in Myotubes, value relative to DMSO ([4]; 10 uM): 1.07 | Burkin Assay in Myotubes, value relative to DMSO ([4]; 20 uM): 0.754 | Burkin Assay in Myotubes, value relative to DMSO ([4]; 40 uM): 0.7611

O=C(O)COc1ccccc1/C=C1\C(=O)Nc2ccc(Br)cc21 [MLS001196427-01]
CMV-LACZ in Myoblasts, value relative to DMSO ([1]; 0.5 uM): 0.7219 | CMV-LACZ in Myoblasts, value relative to DMSO ([1]; 1 uM): 1.0356 | CMV-LACZ in Myoblasts, value relative to DMSO ([1]; 5 uM): 0.9957 | CMV-LACZ in Myoblasts, value relative to DMSO ([1]; 10 uM): 1.1811 | CMV-LACZ in Myoblasts, value relative to DMSO ([1]; 20 uM): 0.7144 | CMV-LACZ in Myoblasts, value relative to DMSO ([1]; 40 uM): 0.9563 | CMV-LACZ in Myotubes, value relative to DMSO ([2]; 0.5 uM): 0.9363 | CMV-LACZ in Myotubes, value relative to DMSO ([2]; 1 uM): 1.0704 | CMV-LACZ in Myotubes, value relative to DMSO ([2]; 5 uM): 0.8423 | CMV-LACZ in Myotubes, value relative to DMSO ([2]; 10 uM): 0.9282 | CMV-LACZ in Myotubes, value relative to DMSO ([2]; 20 uM): 0.9918 | CMV-LACZ in Myotubes, value relative to DMSO ([2]; 40 uM): 0.9000 | Burkin Assay in Myoblasts, value relative to DMSO ([3]; 0.5 uM): 1.02 | Burkin Assay in Myoblasts, value relative to DMSO ([3]; 1 uM): 1.033 | Burkin Assay in Myoblasts, value relative to DMSO ([3]; 5 uM): 0.9384 | Burkin Assay in Myoblasts, value relative to DMSO ([3]; 10 uM): 0.9777 | Burkin Assay in Myoblasts, value relative to DMSO ([3]; 20 uM): 0.8102 | Burkin Assay in Myoblasts, value relative to DMSO ([3]; 40 uM): 0.8763 | Burkin Assay in Myotubes, value relative to DMSO ([4]; 0.5 uM): 0.9194 | Burkin Assay in Myotubes, value relative to DMSO ([4]; 1 uM): 1.02 | Burkin Assay in Myotubes, value relative to DMSO ([4]; 5 uM): 1.022 | Burkin Assay in Myotubes, value relative to DMSO ([4]; 10 uM): 1.135 | Burkin Assay in Myotubes, value relative to DMSO ([4]; 20 uM): 0.7942 | Burkin Assay in Myotubes, value relative to DMSO ([4]; 40 uM): 0.9365

O=C(N/N=C/c1c[nH]c2ccccc12)c1cc(Cl)ccc1O [MLS001196572-01]
CMV-LACZ in Myoblasts (β-galactosidase activity relative to DMSO) ([1]; 0.5 uM): 1.0105 | CMV-LACZ in Myoblasts (β-galactosidase activity relative to DMSO) ([1]; 1 uM): 1.3172 | CMV-LACZ in Myoblasts (β-galactosidase activity relative to DMSO) ([1]; 5 uM): 1.0605 | CMV-LACZ in Myoblasts (β-galactosidase activity relative to DMSO) ([1]; 10 uM): 0.9456 | CMV-LACZ in Myoblasts (β-galactosidase activity relative to DMSO) ([1]; 20 uM): 1.0767 | CMV-LACZ in Myoblasts (β-galactosidase activity relative to DMSO) ([1]; 40 uM): 1.0778 | CMV-LACZ in Myotubes, signal relative to DMSO ([2]; 0.5 uM): 0.9632 | CMV-LACZ in Myotubes, signal relative to DMSO ([2]; 1 uM): 0.9379 | CMV-LACZ in Myotubes, signal relative to DMSO ([2]; 5 uM): 0.9853 | CMV-LACZ in Myotubes, signal relative to DMSO ([2]; 10 uM): 1.0223 | CMV-LACZ in Myotubes, signal relative to DMSO ([2]; 20 uM): 1.1456 | CMV-LACZ in Myotubes, signal relative to DMSO ([2]; 40 uM): 1.1422 | Burkin Assay in Myoblasts, signal relative to DMSO ([3]; 0.5 uM): 0.8826 | Burkin Assay in Myoblasts, signal relative to DMSO ([3]; 1 uM): 0.7626 | Burkin Assay in Myoblasts, signal relative to DMSO ([3]; 5 uM): 1.224 | Burkin Assay in Myoblasts, signal relative to DMSO ([3]; 10 uM): 0.9483 | Burkin Assay in Myoblasts, signal relative to DMSO ([3]; 20 uM): 0.9362 | Burkin Assay in Myoblasts, signal relative to DMSO ([3]; 40 uM): 0.9345 | Burkin Assay in Myotubes, α7 integrin LacZ reporter signal relative to DMSO ([4]; 0.5 uM): 0.9236 | Burkin Assay in Myotubes, α7 integrin LacZ reporter signal relative to DMSO ([4]; 1 uM): 0.8882 | Burkin Assay in Myotubes, α7 integrin LacZ reporter signal relative to DMSO ([4]; 5 uM): 1.148 | Burkin Assay in Myotubes, α7 integrin LacZ reporter signal relative to DMSO ([4]; 10 uM): 0.9294 | Burkin Assay in Myotubes, α7 integrin LacZ reporter signal relative to DMSO ([4]; 20 uM): 0.9805 | Burkin Assay in Myotubes, α7 integrin LacZ reporter signal relative to DMSO ([4]; 40 uM): 0.7181
